Each structure is given as a SMILES string. pKi: −log10 of the molar value.

In the first experiment the target is Serotonin 3 (5-HT3) receptor. In words: Binding affinity towards [3H]quipazine labeled 5-hydroxytryptamine 3 receptor sites in HG108-15. It counts as protein-complex assay, Cavia porcellus.
Conditions: not given
Molecule `CN1C2CCC1CC(OC(=O)c1cnc3ccccc3c1O)C2` (configuration not stated) showed a pKi of 8.21.

In turn, `CCCCOc1cc(C(=O)NC2CC3CCC(C2)N3C)c2ccccc2n1` (configuration not stated) showed a pKi of 7.72.

Regarding `CN1C2CCC1CC(NC(=O)c1c(O)c3ccccc3n(-c3ccccc3)c1=O)C2` (configuration not stated), the negative-log Ki (pKi) is 8.85.

In turn, `CCCCCOc1cc(C(=O)OC2CC3CCC(C2)N3C)c2ccccc2n1` (configuration not stated) had a negative-log Ki (pKi) of 9.07. This pKi is 0.22 log units higher than that of the molecule before.

Consider `CN1C2CCC1CC(OC(=O)c1cc(=O)n(C)c3ccccc13)C2` (configuration not stated), for which the negative-log Ki (pKi) is 8.59.

On to `CC(C)Cc1cc(C(=O)OC2CC3CCC(C2)N3C)c2ccccc2n1` (configuration not stated), for which the pKi was 9.16.

`CN1C2CCC1CC(NC(=O)c1cc(=O)n(-c3ccccc3)c3ccccc13)C2` (configuration not stated) showed a pKi of 7.20.

Take `CC(C)COc1cc(C(=O)OC2CC3CCC(C2)N3C)c2ccccc2n1` (configuration not stated): the pKi was 9.36.

`CC(C)CCn1c(=O)cc(C(=O)OC2CC3CCC(C2)N3C)c2ccccc21` (configuration not stated) showed a pKi of 8.82. This pKi is 0.54 log units lower than that of the molecule before.

Molecule `Cn1cc(C(=O)C2CCc3nc[nH]c3C2)c2ccccc21` (configuration not stated) had a pKi of 10.15.

In turn, `CN1C2CCC1CC(OC(=O)c1cc(=O)n(Cc3ccccc3)c3ccccc13)C2` (configuration not stated) had a negative logarithm of the Ki (pKi) of 8.89.

`CN1C2CCC1CC(OC(=O)c1cc(=O)n(-c3ccccc3)c3ccccc13)C2` (configuration not stated): the pKi was 9.29. This pKi lies 0.40 log units higher than the previous one.

For the molecule `CCCCCCOc1cc(C(=O)OC2CC3CCC(C2)N3C)c2ccccc2n1` (configuration not stated), the negative-log Ki (pKi) was 8.49.

In turn, `CC(C)Oc1cc(C(=O)NC2CC3CCC(C2)N3C)c2ccccc2n1` (configuration not stated) showed a pKi of 7.28. This pKi is 1.21 log units lower than that of the molecule before.

`COc1cc(C(=O)OC2CC3CCC(C2)N3C)c2ccccc2n1` (configuration not stated) gave a negative logarithm of the Ki (pKi) of 9.24.

As to `CCCCCn1c(=O)cc(C(=O)OC2CC3CCC(C2)N3C)c2ccccc21` (configuration not stated), the negative-log Ki (pKi) is 9.02.

Another experiment concerns Rattus norvegicus. In words: Effective dose causing reduction of serotonin effect at 5 min administered iv in Bezold-Jarisch reflex test.
Conditions: not given
It counts as functional.
`CN1C2CCC1CC(OC(=O)c1cnc3ccccc3c1O)C2` (configuration not stated) gave an ED50 of 1.7 µg/kg.

`CCCCOc1cc(C(=O)NC2CC3CCC(C2)N3C)c2ccccc2n1` (configuration not stated) gave an ED50 of 540 µg/kg.

Molecule `CN1C2CCC1CC(NC(=O)c1c(O)c3ccccc3n(-c3ccccc3)c1=O)C2` (configuration not stated) had an ED50 of 73 µg/kg.

`CCCCCOc1cc(C(=O)OC2CC3CCC(C2)N3C)c2ccccc2n1` (configuration not stated) had an ED50 of 1130 µg/kg.

`CN1C2CCC1CC(OC(=O)c1cc(=O)n(C)c3ccccc13)C2` (configuration not stated): the ED50 was 180 µg/kg.

In the case of `CC(C)Cc1cc(C(=O)OC2CC3CCC(C2)N3C)c2ccccc2n1` (configuration not stated), the ED50 was 5.6 µg/kg.

As to `CN1C2CCC1CC(NC(=O)c1cc(=O)n(-c3ccccc3)c3ccccc13)C2` (configuration not stated), the ED50 amounted to 190 µg/kg.

Consider `CC(C)COc1cc(C(=O)OC2CC3CCC(C2)N3C)c2ccccc2n1` (configuration not stated), for which the ED50 worked out at 240 µg/kg.

`CC(C)CCn1c(=O)cc(C(=O)OC2CC3CCC(C2)N3C)c2ccccc21` (configuration not stated) had an ED50 of 59 µg/kg.

`Cn1cc(C(=O)C2CCc3nc[nH]c3C2)c2ccccc21` (configuration not stated) registered an ED50 of 0.089 µg/kg.

Turning to `CN1C2CCC1CC(OC(=O)c1cc(=O)n(Cc3ccccc3)c3ccccc13)C2` (configuration not stated), the ED50 was determined as 150 µg/kg.

As for `CN1C2CCC1CC(OC(=O)c1cc(=O)n(-c3ccccc3)c3ccccc13)C2` (configuration not stated), the ED50 amounted to 44 µg/kg.

`CCCCCCOc1cc(C(=O)OC2CC3CCC(C2)N3C)c2ccccc2n1` (configuration not stated) displayed an ED50 of 7680 µg/kg.

In turn, `CC(C)Oc1cc(C(=O)NC2CC3CCC(C2)N3C)c2ccccc2n1` (configuration not stated) showed an ED50 of 1860 µg/kg.

Molecule `COc1cc(C(=O)OC2CC3CCC(C2)N3C)c2ccccc2n1` (configuration not stated) displayed an ED50 of 420 µg/kg.

In turn, `CCCCCn1c(=O)cc(C(=O)OC2CC3CCC(C2)N3C)c2ccccc21` (configuration not stated) displayed an ED50 of 59 µg/kg.

For a further experiment, the species on record is Rattus norvegicus. In words: Inhibition of wrap-restraint stress-induced colonic propulsion measured by the time required to expel a teflon ball inserted 3 cm into the rat colon. The experiment is classed as functional. The settings on record: read-out: ID50 (the source's name).
Consider `Cn1cc(C(=O)C2CCc3nc[nH]c3C2)c2ccccc21` (configuration not stated), for which the ED50 came to 69 µg/kg.

The species named for a further experiment is Rattus norvegicus. As to the kind of experiment: animal or person. The settings on record: sc, dose mg/kg 1-10, route subcutaneous, read-out: ID50 (the source's name). The experiment is classed as functional.
Description: Inhibitory dose causing inhibition of increase in 5-HT induced defecation by sc administration 1 to 10 mg/kg
In the case of `Cn1cc(C(=O)C2CCc3nc[nH]c3C2)c2ccccc21` (configuration not stated), the ED50 was 13 µg/kg.

The next experiment has as its system Rattus norvegicus. In words: Inhibitory dose causing inhibition of increase in castor oil induced diarrhea by oral administration at 1 ml/rat. The experiment is classed as functional. The settings on record: read-out: ID50 (the source's name).
For `Cn1cc(C(=O)C2CCc3nc[nH]c3C2)c2ccccc21` (configuration not stated), the ED50 stood at 1100 µg/kg.

The species entered for the next experiment is Rattus norvegicus. As to the kind of experiment: animal or person. The experiment is classed as functional. The settings on record: sc, route subcutaneous, read-out: ID50 (the source's name).
Description: Inhibitory dose causing inhibition of increase in thyrotropin-releasing hormone (TRH) induced defecation by sc administration at 1 mg/kg
With `Cn1cc(C(=O)C2CCc3nc[nH]c3C2)c2ccccc21` (configuration not stated), the ED50 stood at 5.1 µg/kg.

In a further experiment the test system is Rattus norvegicus. As to the kind of experiment: Inhibitory dose causing inhibition of restraint stress induced defecation by oral administration. It counts as functional. The settings on record: read-out: ID50 (the source's name).
Regarding `CCCCCOc1cc(C(=O)OC2CC3CCC(C2)N3C)c2ccccc2n1` (configuration not stated), the ED50 was 30000 µg/kg.

For the molecule `CC(C)CCn1c(=O)cc(C(=O)OC2CC3CCC(C2)N3C)c2ccccc21` (configuration not stated), the ED50 stood at 41 µg/kg.

In the case of `Cn1cc(C(=O)C2CCc3nc[nH]c3C2)c2ccccc21` (configuration not stated), the ED50 turned out to be 5.2 µg/kg.

As to `CC(C)Oc1cc(C(=O)NC2CC3CCC(C2)N3C)c2ccccc2n1` (configuration not stated), the ED50 stood at 39000 µg/kg.

With `COc1cc(C(=O)OC2CC3CCC(C2)N3C)c2ccccc2n1` (configuration not stated), the ED50 was determined as 45000 µg/kg.

Take `CCCCCn1c(=O)cc(C(=O)OC2CC3CCC(C2)N3C)c2ccccc21` (configuration not stated): the ED50 is 73 µg/kg.

For another experiment, the system named is Rattus norvegicus. As to the kind of experiment: Inhibitory dose causing inhibition of restraint stress induced defecation by oral administration ((inhibition percent at 1 mg/kg). It counts as functional. The settings on record: read-out: ID50 (the source's name).
Consider `CC(C)COc1cc(C(=O)OC2CC3CCC(C2)N3C)c2ccccc2n1` (configuration not stated), for which the ED50 was determined as 36000 µg/kg.

The subject of a further experiment is Rattus norvegicus. In words: Inhibition of restraint stress induced defecation by oral administration (inhibition at 1 mg/kg).
Conditions: not given
For `CN1C2CCC1CC(OC(=O)c1cnc3ccccc3c1O)C2` (configuration not stated), the Inhibition % at 1 mg/kg stood at 13%.

In the case of `CN1C2CCC1CC(NC(=O)c1c(O)c3ccccc3n(-c3ccccc3)c1=O)C2` (configuration not stated), the Inhibition % at 1 mg/kg was determined as 48%.

As to `CC(C)Cc1cc(C(=O)OC2CC3CCC(C2)N3C)c2ccccc2n1` (configuration not stated), the Inhibition % at 1 mg/kg came out at 28%.

Another experiment deals with Rattus norvegicus. As to the kind of experiment: Inhibition of restraint stress induced defecation by oral administration (inhibition percent at 1 mg/kg).
Conditions: not given
On to `CCCCOc1cc(C(=O)NC2CC3CCC(C2)N3C)c2ccccc2n1` (configuration not stated), for which the Inhibition % at 1 mg/kg came to 43%.

On to `CN1C2CCC1CC(OC(=O)c1cc(=O)n(C)c3ccccc13)C2` (configuration not stated), for which the Inhibition % at 1 mg/kg was 47%.

As to `CN1C2CCC1CC(NC(=O)c1cc(=O)n(-c3ccccc3)c3ccccc13)C2` (configuration not stated), the Inhibition % at 1 mg/kg came out at 14%.

As to `CN1C2CCC1CC(OC(=O)c1cc(=O)n(Cc3ccccc3)c3ccccc13)C2` (configuration not stated), the Inhibition % at 1 mg/kg is 22%.

As to `CN1C2CCC1CC(OC(=O)c1cc(=O)n(-c3ccccc3)c3ccccc13)C2` (configuration not stated), the Inhibition % at 1 mg/kg stood at 59%.

`CCCCCCOc1cc(C(=O)OC2CC3CCC(C2)N3C)c2ccccc2n1` (configuration not stated) returned an Inhibition % at 1 mg/kg of 23%.

Source of the values: ChEMBL document CHEMBL1126872, “5-HT3 receptor antagonists. 3. Quinoline derivatives which may be effective in the therapy of irritable bowel syndrome” (J Med Chem, 1993).
